Measured values reported in patent US20230086099A1, “COMBINATION THERAPY FOR TREATMENT OF CANCER AND CANCER METASTASIS” (ONA Therapeutics, S.L., priority 2020, published 2023).

B1: ONA-0: anti-CD36 antibody ONA-0 (also known as ONA-0-v1; as described in U.S. Patent Application No. 63/117,529) (antibody)
heavy: QVQLKQSGADLVRPGASVKLSCKASGYTFTDYYINWVKQRPGQGLEWIARIYPGSGNTYYNEKFKGKATLTAEKSSSTAYMQLSSLTSEDSAVYFCARGIGGGFGMDYWGQGTSVTVSSESARNPTIYPLTLPPVLCSDPVIIGCLIHDYFPFGTMNVTWGKSGKDITTVNFPPALASGGRYTMSSQLTLPAVECPEGESVKCSVQHDSNPVQELDVNCSPTPPPPITIPSCQPSLSLQRPALEDLLLGSDASITCTLNGLRNPEGAAFTWEPSTGKDAVQKKAAQNSCGCYSVSSVLPGCAERWNSGASFKCTVTHPESGTLTGTIAKVTVNTFPPQVHLLPPPSEELALNELLSLTCLVRAFNPKEVLVRWLHGNEELSPESYLVFEPLKEPGEGATTYLVTSVLRVSAETWKQGDQYSCMVGHEALPMNFTQKTIDRLSGKPTNVSVSVIMSEGDGICY
light: SIVMTQTPKFLLVSAGDRITITCKASQSVSDDVAWYQQKPGQSPKLLIYYASNRYTGVPDRFTGSGYGTDFTFTISTVQAEDLAVYFCQQDYSSPLTFGAGTKLEIKRADAAPTVSIFPPSSEQLTSGGASVVCFLNNFYPKDINVKWKIDGSERQNGVLNSWTDQDSKDSTYSMSSTLTLTKDEYERHNSYTCEATHKTSTSPIVKSFNRNEC

Columns and labels:
OVCAR-3 cells = assay: OVCAR-3 orthotopic mouse model of ovarian cancer; format: in vivo, NSG mice
Procedure: Studies of the effects of the combination of ONA-0 anti-CD36 antibody and cisplatin on ovarian cancer were performed in NSG mice (immuno-deficient). The studies included only female mice. All mice were inoculated with commercially available OVCAR-3 (ATCC) cancer cells. OVCAR-3 cells were derived from a human progressive adenocarcinoma of the ovary (i.e., from an ovarian cancer). Prior to inoculation, the OVCAR-3 cells were cultured in a humidified incubator at 37° C. with 5% CO2, and were grown in RPMI-1640 supplemented with 5 μg ml^−1 penicillin/streptomycin, 0.01 mg/ml bovine insulin and 20% FBS (GIBCO). For each mouse, a piece of an OVCAR-3 xenograft was implanted orthotopically. Treatment of the implanted mice began 23 days after implantation with the OVCAR-3 tumor pieces. Inoculated mice were divided into one of two treatment groups: cisplatin injection control (n=9) or cisplatin in combination with ONA-0 treatment (n=8). Antibody treatments were administered via intraperitoneal (i.p.) injection daily at a dose of 3 mg/kg and cisplatin treatments were administered via intraperitoneal (i.p.) injection twice per week at a dose of 2 mg/kg (FIG. 7B). Mice were sacrificed at the end of the treatment period. Upon sacrifice, organs and tissues were collected for performance of immunohistochemistry analysis.

[1] = test system: Detroit oral cancer cells; assay: Detroit oral cancer cells inoculated in NSG mice: anti-CD36 antibody with cisplatin; format: in vivo; conditions: lung metastases from oral cancer, H&E staining of the lungs; FIGS. 2, 3A-3B
Procedure: (§1) Studies on the combination of anti-CD36 antibody with cisplatin were performed in NSG mice (immuno-deficient) males and females (first experiment mice directly bought, follow up experiments in house breeding) All mice were inoculated with commercially available oral cancer cells Ab dosing was always done daily i.p.
(§2) Two types of oral cancer cell lines were inoculated: • Detroit: “medium” metastatic and very large primary tumor • FaDu: “very strong” metastatic and small primary tumor
(§3) 50,000 or 100,000 cancer cells were inoculated. The starting time of treatment was the amount of days after inoculation of the cancer cells Ab treatment starts.

[2] = test system: FaDu cell line (oral cancer cell line); assay: FaDu oral cancer cells inoculated in NSG mice: lymph node metastases, ONA-0 with cisplatin; format: in vivo
Procedure: as §1, §2, §3

Molecule | SR positive area (collagenous and fibrotic areas) of primary tumors (OVCAR-3 cells; Sirius red staining, FIG. 9C) | primary tumor weight, average (OVCAR-3 cells; at sacrifice, FIG. 9B) | percent necrosis of primary tumors (OVCAR-3 cells; histology, blinded quantification by a pathologist, FIG. 9C) | percentage of mice with metastasis in the liver (OVCAR-3 cells; macroscopic, visual inspection, FIG. 8A) | percentage of animals with metastasis in the peritoneal wall (OVCAR-3 cells; macroscopic, visual inspection, ONA-0 3 mg/kg i.p. daily, cisplatin 2 mg/kg i.p. twice per week, FIG. 8A) | lung metastases, size and number [1] | efficacy on lymph node metastases ([2]; study of FIGS. 4A-4E) | efficacy on lymph node metastasis ([2]; study of FIGS. 5A-5E and 6A-6B)
N.N.[Cl][Pt][Cl] [cisplatin] | 27.45% | 0.468 grams | approximately 14.2% | 11% | 22% | reduces the size of metastases |  | 
B1 |  |  |  |  |  |  | demonstrates efficacy on lymph node metastases | effective as a monotherapy
